Our source for the IC50 values is patent US9850283B2, “Macrocyclic inhibitors of the PD-1/PD-L1 and CD80(B7-1)/PD-L1 protein/protein interactions” (BRISTOL-MYERS SQUIBB COMPANY, priority 2013, dated 2017).

In general, IC50 refers to the point on the concentration scale where inhibition reaches its midpoint.

Like-named read-outs stand apart in the source and are kept apart here. Positions of bridges follow the written chain, without caps; N, C: chain ends. Non-standard residues stand in square brackets, D forms with d. Residues, ends and D or L forms follow the SMILES beside them. Phe(3-CF3) = N[C@@H](Cc1cccc(C(F)(F)F)c1)C(=O)O; Pro(trans-4-F) = O=C(O)[C@@H]1C[C@@H](F)CN1; Ala(cPr) = N[C@@H](CC1CC1)C(=O)O; Hyp = O=C(O)[C@@H]1C[C@@H](O)CN1; NMeF = CN[C@@H](Cc1ccccc1)C(=O)O; NMeNle = CCCC[C@H](NC)C(=O)O; NMeA = CN[C@@H](C)C(=O)O; Orn = NCCC[C@H](N)C(=O)O; Dab = NCC[C@H](N)C(=O)O; Dap = NC[C@H](N)C(=O)O; Sar = CNCC(=O)O

Assay [1] addresses T1, LK35.2-hPD-L1 cells / PE-labeled PD-1-Ig (Homo sapiens, UniProt Q9NZQ7).
T1 construct: expressed in transfected cells; host or cells: LK35.2 mouse B cell line
Put plainly: LK35.2-hPD-L1 cell binding high-content screening assay. The format is cell-based. In a few lines: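 Compound effect on PD-1/PD-L1 binding is measured by imaging cell-associated phycoerythrin signal. Human PD-1-Ig (PE on Ig tag, 1 nM final) is applied with compound to a murine B cell line overexpressing human PD-L1 for 1 h at 37 °C in serum-containing RPMI.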

In another assay the target is T2, Human PD-L1/PD-1 (Homo sapiens, UniProt Q9NZQ7).
T2 construct: made in house; host or cells: HEK293T
The assay can be described thus: HTRF PD-1-Ig/PD-L1-His binding assay (human PD-L1). In a few lines: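 Soluble Fc-fused PD-1 and His-tagged PD-L1 (truncated before the transmembrane region) were combined in dPBS with 0.1% (w/v) BSA and 0.05% (v/v) Tween-20. Binding was read by HTRF using europium cryptate anti-Ig antibody (1 nM final) and APC anti-His antibody (20 nM final).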
On the technique in general: In TR-FRET formats the signal depends on donor and acceptor labels being close together.

The mark [2] stands for this setting: cluster symbol, cell line of CBA not given (LK35.2-hPD-L1 or 293T-hPD-L1), read-out: CBA IC50 cluster.
Setting [3] is: cluster symbol, read-out: HTRF IC50 cluster.
Setting [4] is: cell binding assay, cell line not given, cluster symbol, read-out: CBA IC50 cluster.

T1 sequence (Q9NZQ7 19-290): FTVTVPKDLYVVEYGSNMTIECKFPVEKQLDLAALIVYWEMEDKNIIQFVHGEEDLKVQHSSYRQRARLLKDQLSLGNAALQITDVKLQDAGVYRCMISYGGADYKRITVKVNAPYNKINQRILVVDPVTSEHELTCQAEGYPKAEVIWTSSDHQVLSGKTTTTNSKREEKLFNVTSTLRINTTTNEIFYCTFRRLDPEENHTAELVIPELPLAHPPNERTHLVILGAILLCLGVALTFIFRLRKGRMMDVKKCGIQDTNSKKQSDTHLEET
T2 sequence (Q9NZQ7 with tags, fused parts or gaps): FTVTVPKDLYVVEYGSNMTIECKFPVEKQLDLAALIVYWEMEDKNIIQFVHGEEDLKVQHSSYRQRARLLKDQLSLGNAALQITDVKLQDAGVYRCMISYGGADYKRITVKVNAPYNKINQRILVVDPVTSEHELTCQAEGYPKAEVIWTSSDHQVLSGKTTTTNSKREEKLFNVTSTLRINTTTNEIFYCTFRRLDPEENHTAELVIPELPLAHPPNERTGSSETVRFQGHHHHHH

Take `CCCC[C@H]1C(=O)N(C)CC(=O)N[C@@H](CC(=O)O)C(=O)N[C@@H](CCCNC(=N)N)C(=O)N(C)[C@@H](Cc2ccccc2)C(=O)N[C@@H](Cc2ccc(O)cc2)C(=O)N(C)CC(=O)N[C@@H](Cc2c[nH]c3ccccc23)C(=O)N[C@@H](Cc2ccc(O)cc2)C(=O)N[C@@H](CC(C)C)C(=O)N[C@H](C(=O)NCC(N)=O)CSCC(=O)N[C@@H](Cc2ccccc2)C(=O)N(C)[C@@H](Cc2ccccc2)C(=O)N1C` [Example 3151] (HELM PEPTIDE1{[O=C(C[*:3])[*:2]].F.[meF].[CCCC[C@@H](C(=O)[*:2])N(C)[*:1]].[Sar].D.R.[meF].Y.[Sar].W.Y.L.C.G.[am]}$PEPTIDE1,PEPTIDE1,1:R3-14:R3$$$V2.0): the IC50 was above 74.3 nM in assay [1] (setting [2]) and above 30.5 nM on Human PD-L1/PD-1 (setting [3]).

For `CCCC[C@H]1C(=O)N(C)[C@@H](CCCC)C(=O)N[C@@H](C)C(=O)N[C@H](C(=O)NCC(N)=O)CSCC(=O)N[C@@H](Cc2ccc(O)cc2)C(=O)N(C)[C@@H](C)C(=O)N[C@@H](CC(N)=O)C(=O)N2CCC[C@H]2C(=O)N[C@@H](CN)C(=O)N[C@@H](CCC(=O)O)C(=O)N2C[C@H](O)C[C@H]2C(=O)N[C@@H](Cc2c[nH]c3ccccc23)C(=O)N[C@@H](CO)C(=O)N[C@@H](Cc2c[nH]c3ccccc23)C(=O)N1C` [Example 1171] ({CH2CO}-Y[NMeA]NP[Dap]E[Hyp]WSW[NMeNle][NMeNle]ACG-NH2; thioether N-14), the concentration for half-maximal inhibition (IC50) was 0.158 to 4.71 nM in assay [1] (setting [2]) and 0.385 to 6.74 nM at Human PD-L1/PD-1 (setting [3]).

Turning to `CCCC[C@H]1C(=O)N(C)[C@@H](CCCC)C(=O)N[C@@H](CCCNC(=N)N)C(=O)N[C@H](C(=O)NCC(N)=O)CSCC(=O)N[C@@H](Cc2ccccc2)C(=O)N(C)[C@@H](C)C(=O)N[C@@H](CC(N)=O)C(=O)N2CCC[C@H]2C(=O)N[C@@H](Cc2cnc[nH]2)C(=O)N[C@@H](C(C)C)C(=O)N(C)CC(=O)N[C@@H](Cc2c[nH]c3ccccc23)C(=O)N[C@@H](CO)C(=O)N[C@@H](Cc2c[nH]c3ccccc23)C(=O)N1C` [Example 6007] ({CH2CO}-F[NMeA]NPHV[Sar]WSW[NMeNle][NMeNle]RCG-NH2; thioether N-14), the IC50 in assay [1] (setting [4]) was 4.78 to 72.9 nM; on Human PD-L1/PD-1 (setting [3]), 6.76 to 30.3 nM.

Consider `CCCC[C@H]1C(=O)N(C)[C@@H](CCCC)C(=O)N[C@@H](CC2CC2)C(=O)N[C@H](C(=O)NCC(N)=O)CSCC(=O)N[C@@H](Cc2ccc(O)cc2)C(=O)N(C)[C@@H](C)C(=O)N[C@@H](CC(N)=O)C(=O)N2CCC[C@H]2C(=O)N[C@@H](Cc2c[nH]cn2)C(=O)N[C@@H](CCC(N)=O)C(=O)N2C[C@H](O)C[C@H]2C(=O)N[C@@H](Cc2c[nH]c3ccccc23)C(=O)N[C@@H](CO)C(=O)N[C@@H](Cc2c[nH]c3ccccc23)C(=O)N1C` [Example 5081] ({CH2CO}-Y[NMeA]NPHQ[Hyp]WSW[NMeNle][NMeNle][Ala(cPr)]CG-NH2; thioether N-14), for which the IC50 was in the range of 4.78 to 72.9 nM in assay [1] (setting [4]) and 0.385 to 6.74 nM at Human PD-L1/PD-1 (setting [3]).

On to `CCCC[C@H]1C(=O)N(C)[C@@H](CCCC)C(=O)N[C@@H](CCCNC(=N)N)C(=O)N[C@H](C(=O)NCC(=O)O)CSCC(=O)N[C@@H](Cc2ccccc2)C(=O)N(C)[C@@H](C)C(=O)N[C@@H](CC(N)=O)C(=O)N2CCC[C@H]2C(=O)N[C@@H](Cc2cnc[nH]2)C(=O)N[C@@H](CC(C)C)C(=O)N(C)CC(=O)N[C@@H](Cc2c[nH]c3ccccc23)C(=O)N[C@@H](CO)C(=O)N[C@@H](Cc2c[nH]c3ccccc23)C(=O)N1C` [Example 1076] ({CH2CO}-F[NMeA]NPHL[Sar]WSW[NMeNle][NMeNle]RCG-OH; thioether N-14), for which the 50% inhibitory concentration (IC50) in assay [1] (setting [2]) fell in the range of 4.78 to 72.9 nM; on Human PD-L1/PD-1 (setting [3]) it was 6.76 to 30.3 nM.

For the compound `CCCC[C@H]1C(=O)N(C)[C@@H](CCCC)C(=O)N[C@@H](CO)C(=O)N[C@H](C(=O)NCC(N)=O)CSCC(=O)N[C@@H](Cc2ccc(O)cc2)C(=O)N(C)[C@@H](C)C(=O)N[C@@H](CC(N)=O)C(=O)N2CCC[C@H]2C(=O)N[C@@H](CO)C(=O)N[C@@H](CCC(N)=O)C(=O)N2C[C@H](O)C[C@H]2C(=O)N[C@@H](Cc2c[nH]c3ccccc23)C(=O)N[C@@H](CO)C(=O)N[C@@H](Cc2c[nH]c3ccccc23)C(=O)N1C` [Example 5128] ({CH2CO}-Y[NMeA]NPSQ[Hyp]WSW[NMeNle][NMeNle]SCG-NH2; thioether N-14), the IC50 in assay [1] (setting [4]) lay within 0.158 to 4.71 nM; on Human PD-L1/PD-1 (setting [3]), 0.385 to 6.74 nM.

As to `CCCCC1C(=O)N[C@@H](CCCNC(=N)N)C(=O)N[C@@H](CC(=O)O)C(=O)N[C@@H](C(C)C)C(=O)N(C)[C@@H](Cc2ccccc2)C(=O)N[C@@H](Cc2ccc(O)cc2)C(=O)N(C)CC(=O)N[C@@H](Cc2c[nH]c3ccccc23)C(=O)N[C@@H](Cc2ccc(O)cc2)C(=O)N[C@@H](CC(C)C)C(=O)N[C@H](C(=O)NCC(N)=O)CSCC(=O)N[C@@H](Cc2ccccc2)C(=O)N(C)[C@@H](Cc2ccccc2)C(=O)N1C` (stereo partly shown) [Example 3510] (HELM PEPTIDE1{[O=C(C[*:3])[*:2]].F.[meF].[CCCCC(C(=O)[*:2])N(C)[*:1]].R.D.V.[meF].Y.[Sar].W.Y.L.C.G.[am]}$PEPTIDE1,PEPTIDE1,1:R3-14:R3$$$V2.0), the IC50 in assay [1] (setting [4]) is above 74.3 nM; at Human PD-L1/PD-1 (setting [3]), above 30.5 nM.

For `CCCC[C@H]1C(=O)N(C)[C@@H](CCCC)C(=O)N[C@@H](CCCNC(=N)N)C(=O)N[C@H](C(=O)NCC(N)=O)CSCC(=O)N[C@@H](Cc2ccccc2)C(=O)N(C)[C@@H](C)C(=O)N[C@@H](CC(N)=O)C(=O)N2CCC[C@H]2C(=O)N[C@@H](Cc2cnc[nH]2)C(=O)N[C@@H](CC(C)C)C(=O)N(C)CC(=O)N[C@@H](Cc2c[nH]c3ccccc23)C(=O)N[C@@H](CCCN)C(=O)N[C@@H](Cc2c[nH]c3ccccc23)C(=O)N1C` [Example 1070] ({CH2CO}-F[NMeA]NPHL[Sar]W[Orn]W[NMeNle][NMeNle]RCG-NH2; thioether N-14), the IC50 in assay [1] (setting [2]) is 4.78 to 72.9 nM; at Human PD-L1/PD-1 (setting [3]), 6.76 to 30.3 nM.

Consider `CCCC[C@H]1C(=O)N(C)CC(=O)N[C@@H](CC(=O)O)C(=O)N[C@@H](C(C)C)C(=O)N(C)[C@@H](Cc2ccccc2)C(=O)N[C@@H](Cc2ccc(O)cc2)C(=O)N(C)CC(=O)N[C@@H](Cc2cccc(C(F)(F)F)c2)C(=O)N[C@@H](Cc2ccc(O)cc2)C(=O)N[C@@H](CC(C)C)C(=O)N[C@H](C(=O)NCC(N)=O)CSCC(=O)N[C@@H](Cc2ccccc2)C(=O)N(C)[C@@H](Cc2ccccc2)C(=O)N1C` [Example 3550] ({CH2CO}-F[NMeF][NMeNle][Sar]DV[NMeF]Y[Sar][Phe(3-CF3)]YLCG-NH2; thioether N-13), for which the concentration for half-maximal inhibition (IC50) in assay [1] (cell binding assay, cell line not given, value given instead of cluster, read-out: CBA IC50 value) came to 149 nM; on Human PD-L1/PD-1 (value given instead of cluster, read-out: HTRF IC50 value) it was 40.9 nM.

In the case of `CCCC[C@H]1C(=O)N(C)[C@@H](CO)C(=O)N[C@@H](CCCNC(=N)N)C(=O)NC(C(=O)NCC(N)=O)CSCC(=O)N[C@@H](Cc2ccc(O)cc2)C(=O)N(C)[C@@H](C)C(=O)N[C@@H](CC(N)=O)C(=O)N2CCC[C@H]2C(=O)N[C@@H](Cc2cnc[nH]2)C(=O)N[C@@H](CC(C)C)C(=O)N2C[C@H](O)C[C@H]2C(=O)N[C@@H](Cc2c[nH]c3ccccc23)C(=O)N[C@@H](CO)C(=O)N[C@@H](Cc2c[nH]c3ccccc23)C(=O)N1C` (stereo partly shown) [Example 9034], the concentration for half-maximal inhibition (IC50) in assay [1] (setting [4]) fell in the range of 4.78 to 72.9 nM; on Human PD-L1/PD-1 (setting [3]) it was 6.76 to 30.3 nM.

Regarding `CCCC[C@H]1C(=O)N(C)[C@@H](CCCC)C(=O)N[C@@H](C)C(=O)N[C@H](C(=O)NCC(N)=O)CSCC(=O)N[C@@H](Cc2ccc(O)cc2)C(=O)N(C)[C@@H](C)C(=O)N[C@@H](CC(=O)O)C(=O)N2CCC[C@H]2C(=O)N[C@@H](Cc2c[nH]cn2)C(=O)N[C@@H](CCC(=O)O)C(=O)N2C[C@H](F)C[C@H]2C(=O)N[C@@H](Cc2c[nH]c3ccccc23)C(=O)N[C@@H](CCN)C(=O)N[C@@H](Cc2c[nH]c3ccccc23)C(=O)N1C` [Example 13002] ({CH2CO}-Y[NMeA]DPHE[Pro(trans-4-F)]W[Dab]W[NMeNle][NMeNle]ACG-NH2; thioether N-14), the IC50 in assay [1] (setting [4]) fell in the range of 0.158 to 4.71 nM; on Human PD-L1/PD-1 (setting [3]) it was 0.385 to 6.74 nM.
